Source: patent US20250345318A1, “COMPOUND AND USE THEREOF IN PREVENTING OR TREATING RADIATION DAMAGE” (SIMCERE PHARMACEUTICAL CO., LTD., priority 2022, published 2025)

Legend:
C57BL/6 male mice [1] = experiment: Survival of mice receiving total body X-ray irradiation (Example 1); assay type: in vivo
Method: (§1) C57BL/6 male mice (24.8±1.6 g in body weight) aged 10 weeks were divided into two groups of 11 mice each. After acclimating to the environment, JAC4 (100 mg/kg) or an equal volume of vehicle (polyethylene glycol:ethanol:physiological saline=47.5:7.5:50, v/v/v) was orally administered to the mice once daily for 7 consecutive days. After that, the mice were subjected to total body X-ray irradiation (6.5 Gy) and JAC4 or vehicle treatment was continued. After 3 days, the administration of JAC4 or vehicle was discontinued. The status was observed daily and the body weights of the mice were recorded.

C57BL/6 male mice [2] = experiment: Survival of mice after abdominal X-ray irradiation (Example 2); assay type: in vivo
Method: as §1, with “(26.7±1.0” for “(24.8±1.6”, “10” for “11”, “abdominal” for “total body”, “(12” for “(6.5”

JWA = JWA expression in small intestine by Western blot (Example 4); assay type: in vivo, mice; details: small intestine tissue; JAC4 100 mg/kg oral, 7 days before and 4 days after TBI 6 Gy
Method: C57BL/6 male mice (24.8±1.6 g in body weight) aged 10 weeks were divided into 2 groups. After acclimating to the environment, JAC4 (100 mg/kg) or an equal volume of vehicle (polyethylene glycol:ethanol:physiological saline=47.5:7.5:50, v/v/v) was orally administered to the mice once daily for 7 consecutive days. After that, the mice were subjected to total body X-ray irradiation (6 Gy) and JAC4 or vehicle treatment was continued for 4 days, after which small intestine tissues were collected. The expression levels of JWA in the small intestine were detected by Western blot, with β-actin as the reference. Adobe photoshop CC was used to measure the grayscale value of JWA/β-actin in panel A for statistical analysis (** p<0.01).
The Western blot procedures are as follows:
1. Protein sample preparation: Proper volumes of protein sample solutions were mixed with physiological saline to give […] solutions at a volume of 16 μL, and 4 μL of 5×SDS sample buffer was added. The mixture was uniformly mixed, centrifuged at 1000×g for 10 s, and boiled at 100° C. for 5 min. The samples were cooled at room temperature and then preserved in a −20° C. freezer.
(1) Lower separating gel: The glass plates and gel cassette were assembled while ensuring that the bottom of the glass plates was sealed to prevent leakage of the gel. […]

IEC-6 cells = experiment: Western blot of DNA repair and apoptosis proteins in irradiated IEC-6 cells (Example 14); assay type: cell-based
BEAS-2B cells = experiment: CCK-8 cell viability, JAC4 with X-ray, BEAS-2B (Example 22); assay type: cell-based, human; details: 10 μM JAC4 24 h + 4 Gy X-ray 24 h
Method: SPCA-1 and BEAS-2B cells were cultured in a 90%/DMEM+10% FBS+100 μg/mL ciprofloxacin culture medium. The SPCA-1 and BEAS-2B cells were pretreated for 24 h with 10 μM JAC4 and subjected to 4 Gy X-ray treatment for 24 h and then CCK-8 detection, so as to explore the influence of JAC4 in combination with X-ray on the viability of SPCA-1 and BEAS-2B cells. The specific procedures are as follows:
1. SPCA-1 and BEAS-2B cells in the exponential growth phase were plated in a 96-well plate at 5,000 cells/well in triplicate for each group.
2. After 24 h of culture, when the cells fully adhered to the container wall and returned to normal morphology, the cells were treated with X-ray radiation of 0, 4, 8, 12, 16, or 20 Gy or JAC4 at 0, 1, 5, 10, 20, or 50 μM.
3. After 24 h of treatment, CCK-8 reagent was added at 10 μL/well, and the cells were incubated in a cell incubator for 1 h. The absorbance (OD) at 450 nm was measured.
4. Cell viability equation: cell viability (%)=[…]×100%/(ODcontrol−ODblank).

[3] = JAC4 1 μM or 10 μM 24 h + 12 Gy, vs control group

## c1ccc(CSc2nnc(C3COc4ccccc4O3)o2)nc1 (stereo not shown) [JAC4]
C57BL/6 male mice [1]; JAC4 100 mg/kg oral once daily, 7 days before to 3 days after total body X-ray 6.5 Gy, observation day 30
  mean survival after radiation: 17.9 ± 8.4 days
C57BL/6 male mice [1]; JAC4 100 mg/kg oral, TBI 6.5 Gy, 11 mice per group
  number of mice died: 6 mice
C57BL/6 male mice [1]; JAC4 100 mg/kg oral, TBI 6.5 Gy, 11 mice per group, vehicle group all dead on day 12
  number of mice survived: 5 mice
C57BL/6 male mice [1]; JAC4 100 mg/kg oral, TBI 6.5 Gy, vs vehicle
  weight loss after radiation: slower
C57BL/6 male mice [2]; JAC4 100 mg/kg oral once daily, 7 days before to 3 days after abdominal X-ray 12 Gy, observation day 30
  mean survival after radiation: 16.8 ± 9.0 days
C57BL/6 male mice [2]; JAC4 100 mg/kg oral, ABI 12 Gy, 10 mice per group, day 15
  number of mice died: 4 mice
C57BL/6 male mice [2]; JAC4 100 mg/kg oral, ABI 12 Gy, 10 mice per group, day 15, when all vehicle mice had died
  number of mice survived: 6 mice
C57BL/6 male mice [2]; JAC4 100 mg/kg oral, ABI 12 Gy, vs vehicle
  weight loss after radiation: slower
JWA
  mean grayscale value of JWA expression (JWA/β-actin): 0.72±0.13
IEC-6 cells; [3]
  anti-apoptotic proteins (Bcl-2): increases
  pro-apoptotic proteins (spliced PARP1, spliced Caspase-3, spliced Caspase-9, Bax): decreases
IEC-6 cells; JAC4 treatment after radiation (small intestine tissue and IEC-6 cells)
  XRCC1 expression level: increased its expression level
BEAS-2B cells
  BEAS-2B cell viability (CCK-8): alleviated the inhibitory effect of X-ray
